Source: publication PMC10997755, “Discovery of a small-molecule inhibitor that traps Polθ on DNA and synergizes with PARP inhibitors” (Nature Communications, 2024)
“And” between values parts separate entries of the source, which are not always exact repeats. Identical values can stand only once. “Also recorded” adds a separate entry of the source.

Key:
[1] = target: T1, Fl-Polθ:DNA/DNA complex (Homo sapiens, UniProt O75417); assay: EcoRI endonuclease protection assay; type: biochemical;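 for i+1 (%) (15 nt), replicates #1-#3: i+1 is one-nucleotide extended DNA within post-catalytic complexes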
T1 construct: recombinant human full-length Polθ (Fl-Polθ); made in house
Experimental: (§1) EcoRI and KpnI endonucleases assay: 25 nM 5’-^32P radiolabeled primer-template DNA Sc15-EcoRI (5’-^32P LM3-EcoRI/LM4-EcoRI) or Sc19-KpnI (5’-^32P LM11-Kpn/LM12-Kpn) in reaction buffer (25 mM Tris-HCl pH 7.5, 10 mM MgCl2, 10% glycerol, 0.1 mg/mL BSA, 0,01% igepal, 1 mM DTT) were incubated in the presence or in the absence of 50 nM Polθ-pol, 100 μM ddCTP, and 10 μM inhibitors, as indicated, for 5 min at room temperature. Next, 0.08 U/μL EcoRI or KpnI together with 500 nM “trapping” DNA Sc14 (RP559/RP702) were added and incubated for further 0–40 min at 30 °C as indicated. 10 nM PolθΔcen and FL-Polθ and 25 nM Sc15-EcoRI and Sc19-Kpn were probed with 0.04 U/μL EcoRI or KpnI (both from New England Biolabs) using the same conditions. Reactions were stopped by addition of formamide loading buffer with 50 mM EDTA, resolved in denaturing 20% urea PAAG and analyzed using Typhoon PhosphorImager (GE Amersham). Quantification was done in ImageQuant TL software. All quantified experiments were performed in triplicates and plotted as mean with ± s.d using GraphPad Prism 9 software.

[2] = test system: PolθΔcen:DNA/DNA complex; assay: EcoRI endonuclease protection assay; type: biochemical; conditions: for i (%), normalized to 100%, ave(%) / i (%), replicates: 14 nt i; for i+1 (%) normalized to 100%, ave(%) / i+1 (%), replicates: 15 nt i+1;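 for i (%), replicates: i is primer-template DNA within pre-catalytic complexes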;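 for i+1 (%), replicates: i+1 is one-nucleotide extended DNA within post-catalytic complexes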
Experimental: as §1

[3] = test system: MMEJ reporter (EJ2-GFP) in U2OS cells; assay: Chromosomal MMEJ GFP assay; type: cell-based; conditions: for % GFP/dsRED ratio, Combined mean: Combined EXP.1-3 (0 uM: 3.78889); for % GFP/dsRED ratio, mean per experiment: means of EXP.1, 2, 3 (0 uM: 4.4, 3.73333, 3.23333); for % GFP/dsRED ratio: single replicates of EXP.1-3
Experimental: U2OS cells harboring the chromosomal (EJ2-GFP cassette) MMEJ reporter were plated and treated with various concentrations of RTX-161 for 16 h. Cells were co-transfected with either pCMV–3x- NLS-I-SceI or control vector pCMV-3x-NLS using Lipofectamine 2000 (Invitrogen) along with dsRED-Mito cDNA (control for transfection efficiency). GFP^+ frequencies were measured 3 days post transfection by FACS using Facscanto (Becton Dickinson) in triplicates and corrected for transfection efficiency and background events.

[4] = Colony survival, ola with or without RTX-161 (source data sheet Fig. 2 c; cell line not given); type: cell-based
[5] = test system: Brca1^CC/CC;Polq^-/- cells; assay: Clonogenic assay; type: cell-based, mouse; conditions: for survival relative to 0 uM / survival relative to 0 uM, mean of the four experiments: cc POLQ KO; for survival relative to 0 uM: experiments 2023-04-07 and 2023-04-13; for survival relative to 0 uM, mean of the four experiments: last block without head (mean of 4)
Experimental: Cells were plated on six or twelve or twenty-four well plates. In six well plate, […], BRCA1 -/-, […]; In twelve well plate, […], BRCA1 -/-, PALB2 mut and 400 cells/ well of wildtype pair was plated; In twenty-four well plate, […], BRCA1 -/-, PALB2 mut and 300 cells/ well of wildtype pair was plated. […] The medium was replaced every 2 days until the colonies were ready for staining in 10–12 days. For staining: Medium was removed from plates, and cells were rinsed with PBS. Fixation was carried out with—Water: Ethanol: Acetic acid (5:4:1) for 30 min followed by staining of colonies with 0.5% crystal violet in Water: Ethanol (3:2) for 2 h at room temperature. The plates were rinsed with water and left for drying overnight at room temperature. Colonies were then counted and IC50 was calculated using results from 3 or more independent experiments. Response curves are shown as mean colony formation +/- S.E.M.

[6] = Eco+PolqDcen+ddC+RTx152, 2.5min

T1 sequence (O75417 whole entry, one chain of several): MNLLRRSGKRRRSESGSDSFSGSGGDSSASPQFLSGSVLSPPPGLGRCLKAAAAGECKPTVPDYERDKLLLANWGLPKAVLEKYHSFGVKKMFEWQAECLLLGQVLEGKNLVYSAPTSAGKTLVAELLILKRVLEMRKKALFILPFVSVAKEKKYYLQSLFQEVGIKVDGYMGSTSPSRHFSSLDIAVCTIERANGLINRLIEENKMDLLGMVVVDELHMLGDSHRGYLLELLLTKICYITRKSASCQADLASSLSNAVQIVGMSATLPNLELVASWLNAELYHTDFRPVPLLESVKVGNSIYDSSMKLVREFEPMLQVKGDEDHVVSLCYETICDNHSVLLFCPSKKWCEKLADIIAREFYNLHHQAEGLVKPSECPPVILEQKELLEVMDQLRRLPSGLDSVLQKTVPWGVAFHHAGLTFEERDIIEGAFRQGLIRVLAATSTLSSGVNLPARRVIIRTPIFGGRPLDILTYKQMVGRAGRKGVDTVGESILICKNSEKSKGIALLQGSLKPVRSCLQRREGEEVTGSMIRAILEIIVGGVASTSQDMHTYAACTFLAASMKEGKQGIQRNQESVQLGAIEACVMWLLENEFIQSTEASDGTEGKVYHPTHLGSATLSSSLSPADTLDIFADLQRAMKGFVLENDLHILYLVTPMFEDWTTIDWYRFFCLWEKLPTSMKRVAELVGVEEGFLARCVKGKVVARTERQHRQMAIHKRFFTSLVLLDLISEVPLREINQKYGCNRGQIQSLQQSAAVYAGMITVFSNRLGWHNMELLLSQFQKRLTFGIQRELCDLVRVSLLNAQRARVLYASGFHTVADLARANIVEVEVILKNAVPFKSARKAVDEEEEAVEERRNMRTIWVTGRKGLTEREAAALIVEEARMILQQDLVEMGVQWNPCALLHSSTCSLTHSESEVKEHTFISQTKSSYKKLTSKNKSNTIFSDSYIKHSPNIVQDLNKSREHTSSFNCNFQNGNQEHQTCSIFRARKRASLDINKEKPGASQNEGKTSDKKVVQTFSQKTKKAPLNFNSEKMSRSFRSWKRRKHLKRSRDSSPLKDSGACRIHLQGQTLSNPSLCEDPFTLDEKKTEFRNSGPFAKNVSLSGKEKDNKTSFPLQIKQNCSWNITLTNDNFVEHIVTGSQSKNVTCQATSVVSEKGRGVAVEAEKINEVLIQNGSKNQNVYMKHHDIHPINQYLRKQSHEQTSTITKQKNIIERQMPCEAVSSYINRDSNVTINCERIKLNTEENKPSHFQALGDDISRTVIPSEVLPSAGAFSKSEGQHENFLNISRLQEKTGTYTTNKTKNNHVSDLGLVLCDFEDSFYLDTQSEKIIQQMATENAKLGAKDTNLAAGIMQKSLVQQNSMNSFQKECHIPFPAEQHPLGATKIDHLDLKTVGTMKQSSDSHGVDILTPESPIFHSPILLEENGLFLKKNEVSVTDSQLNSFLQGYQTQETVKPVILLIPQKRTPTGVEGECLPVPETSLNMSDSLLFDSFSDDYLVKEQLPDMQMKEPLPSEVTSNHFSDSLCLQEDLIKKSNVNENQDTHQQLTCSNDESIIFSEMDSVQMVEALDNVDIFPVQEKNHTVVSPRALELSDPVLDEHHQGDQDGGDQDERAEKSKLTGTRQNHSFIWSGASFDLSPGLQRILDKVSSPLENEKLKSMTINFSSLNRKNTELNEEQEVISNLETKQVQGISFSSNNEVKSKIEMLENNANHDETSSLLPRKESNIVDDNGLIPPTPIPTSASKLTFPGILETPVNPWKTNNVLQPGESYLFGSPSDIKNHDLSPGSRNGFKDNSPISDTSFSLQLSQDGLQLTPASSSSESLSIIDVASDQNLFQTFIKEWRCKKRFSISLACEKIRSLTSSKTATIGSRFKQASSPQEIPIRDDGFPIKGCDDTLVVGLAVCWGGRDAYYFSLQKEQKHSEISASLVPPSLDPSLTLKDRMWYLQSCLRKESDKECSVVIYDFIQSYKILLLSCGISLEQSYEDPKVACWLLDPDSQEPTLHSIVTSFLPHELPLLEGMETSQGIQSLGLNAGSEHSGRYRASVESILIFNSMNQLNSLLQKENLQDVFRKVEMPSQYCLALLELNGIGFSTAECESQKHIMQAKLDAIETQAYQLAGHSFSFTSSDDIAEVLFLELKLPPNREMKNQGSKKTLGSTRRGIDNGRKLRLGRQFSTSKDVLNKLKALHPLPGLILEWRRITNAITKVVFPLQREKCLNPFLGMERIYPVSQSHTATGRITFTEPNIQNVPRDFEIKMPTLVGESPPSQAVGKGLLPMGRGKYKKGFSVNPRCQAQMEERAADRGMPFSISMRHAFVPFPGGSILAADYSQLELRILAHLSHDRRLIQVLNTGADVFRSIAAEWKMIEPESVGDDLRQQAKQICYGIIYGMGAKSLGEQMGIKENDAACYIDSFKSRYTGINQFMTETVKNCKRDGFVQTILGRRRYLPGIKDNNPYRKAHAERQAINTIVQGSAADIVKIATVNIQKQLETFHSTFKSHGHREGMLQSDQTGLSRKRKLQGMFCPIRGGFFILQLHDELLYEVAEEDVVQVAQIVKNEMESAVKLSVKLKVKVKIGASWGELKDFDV

CN1CCN(c2cc(C(F)(F)F)cc(C(F)(F)F)c2OC(=O)N(C)c2ccc(F)cc2)C1=O [RTx-152]
EcoRI cleavage %, ave ([1]; Eco+FL+ddC+RTx152, 2.5min): 15.4%
EcoRI cleavage %, replicates #1-#3 ([1]; Eco+FL+ddC+RTx152, 2.5min): 16.1% and 15.5% and 14.7%
EcoRI cleavage %, ave ([1]; Eco+FL+ddC+RTx152, 5min): 27.7%
EcoRI cleavage %, replicates #1-#3 ([1]; Eco+FL+ddC+RTx152, 5min): 28.7% and 27.4% and 27.0%
EcoRI cleavage %, ave ([1]; Eco+FL+ddC+RTx152, 10min): 38.7%
EcoRI cleavage %, replicates #1-#3 ([1]; Eco+FL+ddC+RTx152, 10min): 39.6% and 39.0% and 37.5%
i (%) (14 nt), replicates #1-#3 ([1]; FL+ddC+152, 2.5min): 45.9% and 45.3% and 45.1%
i (%), normalized to 100%, ave(%) ([1]; FL+ddC+152, 2.5min): 100.0%
i+1 (%) (15 nt), replicates #1-#3 ([1]; FL+ddC+152, 2.5min): 24.5% and 25.2% and 24.4%
i+1 (%) normalized to 100%, ave(%) ([1]; FL+ddC+152, 2.5min): 100.0%
i (%) (14 nt), replicates #1-#3 ([1]; FL+ddC+152, 5min): 32.7% and 32.3% and 32.8%
i (%), normalized to 100%, ave(%) ([1]; FL+ddC+152, 5min): 71.7%
i+1 (%) (15 nt), replicates #1-#3 ([1]; FL+ddC+152, 5min): 24.7% and 27.0% and 24.6%
i+1 (%) normalized to 100%, ave(%) ([1]; FL+ddC+152, 5min): 103.0%
i (%) (14 nt), replicates #1-#3 ([1]; FL+ddC+152, 10min): 19.6% and 20.0% and 17.7%
i (%), normalized to 100%, ave(%) ([1]; FL+ddC+152, 10min): 42.0%
i+1 (%) (15 nt), replicates #1-#3 ([1]; FL+ddC+152, 10min): 27.5% and 27.2% and 25.6%
i+1 (%) normalized to 100%, ave(%) ([1]; FL+ddC+152, 10min): 108.3%
post-catalytic complexes (i + 1), EcoRI cleavage ([1]; Fl-Polθ): fully resistant to EcoRI cleavage
EcoRI cleavage %, ave [2, 6]: 9.7%
EcoRI cleavage %, replicates [2, 6]: 11.0% and 8.0% and 10.0%
EcoRI cleavage %, ave ([2]; Eco+PolqDcen+ddC+RTx152, 5min): 14.0%
EcoRI cleavage %, replicates ([2]; Eco+PolqDcen+ddC+RTx152, 5min): 17.0% and 12.0% and 13.0%
EcoRI cleavage %, ave ([2]; Eco+PolqDcen+ddC+RTx152, 10min): 16.7%
EcoRI cleavage %, replicates ([2]; Eco+PolqDcen+ddC+RTx152, 10min): 21.0% and 14.0% and 15.0%
i (%), normalized to 100%, ave(%) ([2]; PolqDcen+ddC+152, 2.5 min): 100.0%
i (%), replicates ([2]; PolqDcen+ddC+152, 2.5 min): 50.3% and 44.4% and 42.8%
i+1 (%) normalized to 100%, ave(%) ([2]; PolqDcen+ddC+152, 2.5 min): 100.0%
i+1 (%), replicates ([2]; PolqDcen+ddC+152, 2.5 min): 20.4% and 24.4% and 22.1%
i (%), normalized to 100%, ave(%) ([2]; PolqDcen+ddC+152, 5 min): 86.1%
i (%), replicates ([2]; PolqDcen+ddC+152, 5 min): 40.2% and 38.5% and 39.7%
i+1 (%) normalized to 100%, ave(%) ([2]; PolqDcen+ddC+152, 5 min): 111.1%
i+1 (%), replicates ([2]; PolqDcen+ddC+152, 5 min): 23.8% (2×) and 26.6%
i (%), normalized to 100%, ave(%) ([2]; PolqDcen+ddC+152, 10 min): 66.5%
i (%), replicates ([2]; PolqDcen+ddC+152, 10 min): 33.3% and 25.6% and 32.6%
i+1 (%) normalized to 100%, ave(%) ([2]; PolqDcen+ddC+152, 10 min): 137.8%
i+1 (%), replicates ([2]; PolqDcen+ddC+152, 10 min): 25.8% and 38.6% and 27.7%

CN(C(=O)Oc1c(N2CCN(CCO)C2=O)cc(C(F)(F)F)cc1C(F)(F)F)c1ccc(F)cc1 [RTx-161]
% GFP/dsRED ratio, Combined mean ([3]; 5 uM): 3.422%
% GFP/dsRED ratio, mean per experiment ([3]; 5 uM): 3.067% and 3.933% and 3.267%
% GFP/dsRED ratio ([3]; 5 uM): 2.8% and 4% and 2.5% and 3.3% and 3.6% and 3.5% and 3.1% and 4.2% and 3.8%
% GFP/dsRED ratio, Combined mean ([3]; 10 uM): 3.378%
% GFP/dsRED ratio, mean per experiment ([3]; 10 uM): 3.067% and 3.8% and 3.267%
% GFP/dsRED ratio ([3]; 10 uM): 2.9% and 3.3% and 2.6% and 3.2% and 3.9% and 3.4% and 3.1% and 4.2% and 3.8%
% GFP/dsRED ratio, Combined mean ([3]; 15 uM): 2.733%
% GFP/dsRED ratio, mean per experiment ([3]; 15 uM): 3.033% and 2.067% and 3.1%
% GFP/dsRED ratio ([3]; 15 uM): 2.9% and 2.2% and 3.3% and 2.8% (2×) and 2.1% and 3.4% and 1.9% and 3.2%
cellular MMEJ (GFP reporter) ([3]; 20 μM RTx-161): reduction in cellular MMEJ; also recorded: suppression of MMEJ
% GFP/dsRED ratio, Combined mean ([3]; 20 uM): 1.611%
% GFP/dsRED ratio, mean per experiment ([3]; 20 uM): 1.8% and 1.367% and 1.667%
% GFP/dsRED ratio ([3]; 20 uM): 1.9% and 1.3% and 1.8% and 1.6% (2×) and 1.5% and 1.2% and 1.7%
percent suvival ([4]; RTX-161 1 uM + ola 0.125 um): 37.2624% and 27.7457% and 32.5843%
percent suvival ([4]; RTX-161 1 uM + ola 0.25 um): 11.4068% and 11.5607% and 13.4831%
percent suvival ([4]; RTX-161 1 uM, ola 0 um): 93.9163% and 101.156% and 103.371%
percent suvival ([4]; RTX-161 2 uM, ola 0 um): 93.5361% and 104.624% and 106.742%
survival relative to 0 uM ([5]; 150 cells/well, RTx-161 1.25 uM): 105.26% and 120.00%
survival relative to 0 uM ([5]; 150 cells/well, RTx-161 2.5 uM): 73.68% and 115.00%
survival relative to 0 uM ([5]; 150 cells/well, RTx-161 5 uM): 89.47% and 105.00%
survival relative to 0 uM ([5]; 150 cells/well, RTx-161 10 uM): 94.74% and 95.00%
survival relative to 0 uM ([5]; 150 cells/well, RTx-161 20 uM): 73.68% and 90.00%
survival relative to 0 uM ([5]; 300 cells/well, RTx-161 1.25 uM): 106.67% and 94.44%
survival relative to 0 uM ([5]; 300 cells/well, RTx-161 2.5 uM): 83.33%
survival relative to 0 uM ([5]; 300 cells/well, RTx-161 5 uM): 83.33% and 86.11%
survival relative to 0 uM ([5]; 300 cells/well, RTx-161 10 uM): 86.67% and 94.44%
survival relative to 0 uM ([5]; 300 cells/well, RTx-161 20 uM): 80.00% and 83.33%
survival relative to 0 uM, mean of the four experiments ([5]; RTx-161 1.25 uM): 106.59%
survival relative to 0 uM, mean of the four experiments ([5]; RTx-161 2.5 uM): 88.84%
survival relative to 0 uM, mean of the four experiments ([5]; RTx-161 5 uM): 90.98%
survival relative to 0 uM, mean of the four experiments ([5]; RTx-161 10 uM): 92.71%
survival relative to 0 uM, mean of the four experiments ([5]; RTx-161 20 uM): 81.75%
sensitivity of Brca1^CC/CC;Polq^-/- cells ([5]; compared to Brca1^CC/CC cells): resistant
